These results are taken from patent publication US20100075957A1, “AMINODIHYDROTHIAZINE DERIVATIVES SUBSTITUTED WITH A CYCLIC GROUP” (SHIONOGI & CO., LTD., priority 2007, published 2010).

Where only a bound is given, the exact number is not on record here.

T1 sequence (P56817 46-501): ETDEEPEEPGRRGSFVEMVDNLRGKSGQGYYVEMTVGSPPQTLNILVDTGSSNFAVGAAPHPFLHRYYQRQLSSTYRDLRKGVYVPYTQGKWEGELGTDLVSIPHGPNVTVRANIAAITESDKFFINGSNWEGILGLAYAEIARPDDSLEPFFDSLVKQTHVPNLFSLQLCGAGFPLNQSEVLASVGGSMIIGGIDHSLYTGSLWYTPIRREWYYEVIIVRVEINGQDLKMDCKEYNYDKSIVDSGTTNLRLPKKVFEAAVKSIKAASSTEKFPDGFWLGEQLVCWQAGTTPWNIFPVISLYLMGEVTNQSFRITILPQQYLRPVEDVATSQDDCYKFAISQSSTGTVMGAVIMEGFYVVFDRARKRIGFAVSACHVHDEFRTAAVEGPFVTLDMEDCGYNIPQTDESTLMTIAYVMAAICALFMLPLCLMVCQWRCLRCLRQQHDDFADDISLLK

One assay concerns the target T1, Recombinant human BACE-1 (Homo sapiens, UniProt P56817).
T1 construct: purchased R&D Systems
Kind of assay: Assay of β-secretase-inhibiting activity.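 Note: substrate is a peptide carrying biotin and europium cryptate, after the enzyme reaction, Streptavidin-XL665 is added and incubated 1 h at 30 °C before fluorescence reading.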 Format: biochemical. The settings on record: Recombinant human BACE-1 7.4 nM, substrate peptide 18 nM, pH 5.0, 30° C., 3 hours; Table 139; read-out: IC50.
On to `COCCOCCOc1cnc(C(=O)Nc2ccc(F)c([C@]3(C)CCSC(N)=N3)c2)cn1` [Compound 164], for which the IC50 amounted to 80 nM.
Same read-out and setting: the same measure for `COCCOc1cnc(C(=O)Nc2cccc(C3(C)CCSC(N)=N3)c2)cn1` (stereo not drawn) [Compound 62]: 170 nM.
On the same count and under the same terms, then `C[C@@]1(c2cccc(NC(=O)c3cnc(OCc4ccccc4)cn3)c2)CCSC(N)=N1` [Compound 101], with 80 nM; and `C[C@@]1(c2cc(NC(=O)c3ccc(OCCO)cn3)ccc2F)CCSC(N)=N1` [Compound 114], with 160 nM; and `CSCCOc1cnc(C(=O)Nc2cccc([C@]3(C)CCSC(N)=N3)c2)cn1` [Compound 76], with 180 nM.
Same read-out and setting: then `C/C=C/COc1ccc(C(=O)Nc2cccc([C@]3(C)CCSC(N)=N3)c2)nc1` [Compound 34], with 100 nM; and `C[C@@]1(c2cc(NC(=O)CSc3nccc(O)n3)ccc2F)CCSC(N)=N1` [Compound 163], with 6790 nM; and `C[C@@]1(c2cccc(NC(=O)c3cnc(OCC4CCO4)cn3)c2)CCSC(N)=N1` (stereo partly drawn) [Compound 94], with 170 nM.
In the case of `Cc1nc(C)c(C(=O)Nc2ccc(F)c([C@]3(C)CCSC(N)=N3)c2)s1` [Compound 12], the IC50 came to 160 nM.

The assay is the same for the next values; noted with them: Recombinant human BACE-1 7.4 nM, substrate peptide 18 nM, pH 5.0, 30° C., 3 hours; Table 140; read-out: IC50.
Regarding `Cc1ncc(C(=O)Nc2ccc(F)c([C@]3(C)CCSC(N)=N3)c2)s1` [Compound 508], the IC50 stood at 40 nM.
Same read-out and setting: the same measure for `Cc1cnc(C(=O)Nc2cccc([C@]3(C)CCSC(N)=N3)c2)cn1` [Compound 563]: 20 nM; for `C[C@@]1(c2ccnc(NC(=O)c3ccc(Cl)cn3)c2)CCSC(N)=N1` [Compound 598]: 30 nM; for `Cn1nc(Cl)cc1C(=O)Nc1cncc([C@]2(C)CCSC(N)=N2)c1` [Compound 478]: 80 nM.
Still for that read-out and setting: then `Cc1cc(C)n(-c2cnc(C(=O)Nc3ccc(F)c([C@]4(C)CCSC(N)=N4)c3)cn2)n1` [Compound 579], with 140 nM; and `Cc1cnc(C(=O)Nc2cccc([C@]3(C)CCSC(N)=N3)n2)cn1` [Compound 594], with 170 nM; and `C[C@@]1(c2cccc(NC(=O)c3ccc(Cl)cn3)n2)CCSC(N)=N1` [Compound 599], with 30 nM.
In the case of `CC1(C)C[C@@](C)(c2cc(NC(=O)c3coc(Cl)n3)ccc2F)N=C(N)S1` [Compound 645], the IC50 was 200 nM.
For the compound `C[C@@]1(c2cc(NC(=O)c3cnc(Cl)cn3)ccc2Br)CCSC(N)=N1` [Compound 517], the IC50 came out at 130 nM.

The same assay, now with this note: Recombinant human BACE-1 7.4 nM, substrate peptide 18 nM, pH 5.0, 30° C., 3 hours; Table 141; read-out: IC50.
In the case of `COc1ncc(NC(=O)c2cnc(C)cn2)cc1[C@]1(C)CCSC(N)=N1` [Compound 680], the IC50 amounted to 50 nM.
On to `CCCCc1ccc(C(=O)Nc2ccc(F)c([C@@]3(C)N=C(N)SCC3(F)F)c2)nc1` [Compound 665], for which the IC50 worked out at 870 nM.
Take `C[C@@]1(c2cc(Nc3ncc4ccccn34)ccc2F)CCSC(N)=N1` [Compound 668]: the IC50 is 510 nM.
On to `Cc1cn2cc(C(=O)Nc3ccc(F)c([C@]4(C)CCSC(N)=N4)c3)ncc2n1` [Compound 652], for which the IC50 came out at 60 nM.

The assay is the same for the next values; noted with them: Recombinant human BACE-1 7.4 nM, substrate peptide 18 nM, pH 5.0, 30° C., 3 hours; time-resolved fluorescence ratio 665/620; read-out: IC50 values (50% inhibitory concentration against the enzymatic activity).
For `C[C@@]1(c2cccc(NC(=O)c3cnc(OCC(F)(F)F)cn3)c2)CCSC(N)=N1` [Compound 82], the IC50 was at most 1000 nM.
On the same count and under the same terms, the same measure for `COCCOc1nccnc1C(=O)Nc1ccc(F)c([C@]2(C)CCSC(N)=N2)c1` [Compound 45]: at most 1000 nM; for `C[C@@]1(c2cc(NC(=O)c3cc4ccccc4o3)ccc2F)CCSC(N)=N1` [Compound 540]: at most 1000 nM; for `COc1cnc(C(=O)Nc2ccc(F)c([C@]3(C)CCSC(N)=N3)c2)c(N)n1` [Compound 603]: at most 1000 nM.
As to `COCCOc1cnc(C(=O)Nc2ccc(F)c([C@]3(C)CCSC(N)=N3)c2)cn1` [Compound 75], the IC50 was at most 1000 nM.
Same read-out and setting: the same measure for `COc1cnc(C(=O)Nc2ccc(F)c([C@]3(C)CCSC(N)=N3)c2)c(OC)c1` [Compound 489]: at most 1000 nM; for `COCCCc1cnc(C(=O)Nc2ccc(F)c([C@]3(C)CCSC(N)=N3)c2)cn1` [Compound 118]: at most 1000 nM; for `CCc1cnc(C(=O)Nc2cccc([C@]3(C)CCSC(N)=N3)c2)cn1` [Compound 63]: at most 1000 nM.
As for `Cc1nc(C(=O)Nc2cnc(Cl)c([C@]3(C)CCSC(N)=N3)c2)co1` [Compound 584], the IC50 was at most 1000 nM.
Still for that read-out and setting: then `CCc1nc(C(=O)Nc2ccc(F)c([C@]3(C)CCSC(N)=N3)c2)co1` [Compound 670], with at most 1000 nM.
The same measure, in the same setting: the same measure for `Cc1ncc(C(=O)Nc2ccc(F)c([C@]3(C)CCSC(N)=N3)c2)s1` [Compound 508]: at most 1000 nM; for `CC1(C)CSC(N)=N[C@]1(C)c1cc(NC(=O)c2ncccc2F)ccc1F` [Compound 661]: at most 1000 nM; for `C[C@@]1(c2cc(NC(=O)c3ccc(OCC#CCO)cn3)ccc2F)CCSC(N)=N1` [Compound 567]: at most 1000 nM.
As for `Cc1cccnc1C(=O)Nc1ccc(F)c([C@]2(C)CCSC(N)=N2)c1` [Compound 503], the IC50 is at most 1000 nM.
For `C[C@@]1(c2cc(NC(=O)c3cnc(NCC#N)cn3)ccc2F)CCSC(N)=N1` [Compound 701], the IC50 was at most 1000 nM.
On the same count and under the same terms, the same measure for `Cc1cc(C(=O)Nc2ccc(F)c([C@]3(C)CCSC(N)=N3)c2)oc1C` [Compound 529]: at most 1000 nM.
With `COCCOc1cnc(C(=O)Nc2cc([C@]3(C)CCSC(N)=N3)c3oc(C)cc3c2)cn1` [Compound 465], the IC50 was at most 1000 nM.
Take `CC1(C)C[C@@](C)(c2cncc(NC(=O)c3cnc(OCCF)cn3)c2)N=C(N)S1` [Compound 568]: the IC50 is at most 1000 nM.
As for `C#Cc1cn2cc(C(=O)Nc3ccc(F)c([C@]4(C)CCSC(N)=N4)c3)ncc2n1` [Compound 698], the IC50 was at most 1000 nM.
The same measure, in the same setting: the same measure for `COCCOc1cnc(C(=O)Nc2cnc(Cl)c([C@]3(C)CCSC(N)=N3)c2)cn1` [Compound 583]: at most 1000 nM.
On the same count and under the same terms, the same measure for `CC(C)=NOc1cnc(C(=O)Nc2ccc(F)c([C@]3(C)CCSC(N)=N3)c2)cn1` [Compound 125]: at most 1000 nM; for `CC#CCOc1cnc(C(=O)Nc2cc([C@]3(C)CCSC(N)=N3)ccn2)cn1` [Compound 596]: at most 1000 nM; for `Cc1cc(C(=O)Nc2ccc(F)c([C@]3(C)CCSC(N)=N3)c2)on1` [Compound 19]: at most 1000 nM.
Still for that read-out and setting: then `Cc1cnc(C(=O)Nc2cncc([C@]3(C)CCSC(N)=N3)c2)cn1` [Compound 550], with at most 1000 nM; and `CCN1N=C(C(=O)Nc2ccc(F)c([C@]3(C)CCSC(N)=N3)c2)CCC1=O` [Compound 477], with at most 1000 nM; and `CC1(C)C[C@@](C)(c2cc(NC(=O)c3ncc(C(F)(F)F)cc3Cl)ccc2F)N=C(N)S1` [Compound 644], with at most 1000 nM.
In the case of `C[C@@]1(c2cc(NC(=O)c3ccc(Cl)cn3)ccn2)CCSC(N)=N1` [Compound 552], the IC50 was at most 1000 nM.
In the case of `COc1cnc(C(=O)Nc2ccc(F)c([C@@]3(C)N=C(N)SC[C@@H]3OCc3ccccc3)c2)cn1` [Compound 683], the IC50 was at most 1000 nM.
Consider `C[C@@]1(c2cc(NC(=O)c3cnc(OCC4CC4)cn3)ccc2F)CCSC(N)=N1` [Compound 121], for which the IC50 is at most 1000 nM.
Take `C[C@@]1(c2cc(NC(=O)c3coc(Cl)n3)ccc2F)CCSC(N)=N1` [Compound 467]: the IC50 was at most 1000 nM.
Take `CCOc1nccnc1C(=O)Nc1ccc(F)c([C@]2(C)CCSC(N)=N2)c1` [Compound 43]: the IC50 was at most 1000 nM.
For `Cc1nc(C(=O)Nc2cncc([C@]3(C)CCSC(N)=N3)c2)c(C(F)(F)F)o1` [Compound 501], the IC50 was at most 1000 nM.
Consider `CC#CCNc1cnc(C(=O)Nc2cccc([C@]3(C)CCSC(N)=N3)c2)cn1` [Compound 123], for which the IC50 was at most 1000 nM.
Still for that read-out and setting: the same measure for `C[C@@]1(c2cc(NC(=O)c3ncccc3F)ccn2)CCSC(N)=N1` [Compound 613]: at most 1000 nM; for `CCCCCc1cnc(C(=O)Nc2ccc(F)c([C@]3(C)CCSC(N)=N3)c2)cn1` [Compound 115]: at most 1000 nM; for `C[C@@]1(c2cc(NC(=O)c3cnc(OCC(F)F)cn3)ccc2F)CCSC(N)=N1` [Compound 131]: at most 1000 nM.
On the same count and under the same terms, then `C[C@@]1(c2cc(NC(=O)c3cn4cc(C#N)nc4cn3)ccc2F)CCSC(N)=N1` [Compound 697], with at most 1000 nM; and `Cc1nc(C(=O)Nc2ccc(F)c([C@]3(C)CCSC(N)=N3)c2)c(C(F)(F)F)o1` [Compound 471], with at most 1000 nM.
With `C[C@@]1(c2cc(NC(=O)c3cnc(/C=C/CO)cn3)ccc2F)CCSC(N)=N1` [Compound 162], the IC50 is at most 1000 nM.
For the compound `C[C@@]1(c2cc(NC(=O)c3coc(CCl)n3)ccc2F)CCSC(N)=N1` [Compound 470], the IC50 was at most 1000 nM.
With `C[C@@]1(c2cc(NC(=O)c3cnc(-c4nccs4)cn3)ccc2F)CCSC(N)=N1` [Compound 519], the IC50 is at most 1000 nM.
On the same count and under the same terms, the same measure for `COCCOc1cnc(C(=O)Nc2cncc([C@]3(C)CCSC(N)=N3)c2)cn1` [Compound 590]: at most 1000 nM; for `CC#CCOc1cnc(C(=O)Nc2cccc(C3CCSC(N)=N3)c2)cn1` (stereo not drawn) [Compound 107]: at most 1000 nM; for `C[C@@]1(c2cncc(NC(=O)c3cnc(OCCF)cn3)c2)CCSC(N)=N1` [Compound 557]: at most 1000 nM.
Same read-out and setting: then `CCc1cc(C(=O)Nc2ccc(F)c([C@]3(C)CCSC(N)=N3)c2)on1` [Compound 495], with at most 1000 nM.
`COCCOc1cnc(C(=O)Nc2ccc(F)c([C@]3(C)CCSC(N)=N3)c2)c(N)n1` [Compound 46]: the IC50 was at most 1000 nM.
Turning to `C[C@@]1(c2cncc(NC(=O)c3sccc3Br)c2)CCSC(N)=N1` [Compound 515], the IC50 is at most 1000 nM.
On the same count and under the same terms, then `COc1cnc(C(=O)Nc2ccc(F)c([C@@]3(C)N=C(N)SC[C@H]3OCc3ccccc3)c2)cn1` [Compound 684], with at most 1000 nM; and `Cc1cnc(C(=O)Nc2ccc(F)c([C@]3(C)CC(C)(C)SC(N)=N3)c2)cn1` [Compound 606], with at most 1000 nM; and `COCCOc1cnc(C(=O)Nc2ccnc([C@]3(C)CCSC(N)=N3)c2)cn1` [Compound 549], with at most 1000 nM.
